According to ChEMBL document CHEMBL1138974 (Bioorg Med Chem Lett, 2006):
The source made the active and inactive calls. The rule behind the calls is not given here.

What was measured:
[1] = biological target: T1, Sodium- and chloride-dependent glycine transporter 1 (Homo sapiens, UniProt P48067); assay: (§1) Inhibition of [3H]glycine uptake at human GlyT1 by radiometric assay
T1 sequence (P48067 whole entry): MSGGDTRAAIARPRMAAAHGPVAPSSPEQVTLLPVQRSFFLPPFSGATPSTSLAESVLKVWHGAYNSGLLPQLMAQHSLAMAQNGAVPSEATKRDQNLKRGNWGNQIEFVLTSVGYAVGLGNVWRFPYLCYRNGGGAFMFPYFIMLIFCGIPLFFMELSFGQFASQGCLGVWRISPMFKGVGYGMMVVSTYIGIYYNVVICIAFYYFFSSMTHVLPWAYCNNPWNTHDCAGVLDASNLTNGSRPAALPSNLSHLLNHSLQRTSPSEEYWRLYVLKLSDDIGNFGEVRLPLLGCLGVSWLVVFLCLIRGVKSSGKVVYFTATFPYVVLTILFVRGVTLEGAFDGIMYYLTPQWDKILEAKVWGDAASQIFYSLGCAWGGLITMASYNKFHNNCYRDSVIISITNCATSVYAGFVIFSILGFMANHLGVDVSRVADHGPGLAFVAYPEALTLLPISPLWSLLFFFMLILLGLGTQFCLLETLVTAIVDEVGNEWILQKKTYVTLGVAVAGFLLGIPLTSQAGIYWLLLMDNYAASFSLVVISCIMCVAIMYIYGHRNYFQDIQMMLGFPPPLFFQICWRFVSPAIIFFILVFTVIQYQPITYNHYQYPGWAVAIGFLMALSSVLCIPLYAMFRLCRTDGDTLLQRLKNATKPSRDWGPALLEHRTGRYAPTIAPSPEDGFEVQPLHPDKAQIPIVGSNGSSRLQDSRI

[2] = Intrinsic clearance in rat microsome; format: ADME; conditions: microsomes
[3] = Intrinsic clearance in human microsome; format: ADME; conditions: microsomes
[4] = Dissociation constant, pKa of the compound; format: physicochemical
[5] = biological target: T2, Sodium- and chloride-dependent glycine transporter 1 (Homo sapiens) (UniProt P48067); assay: as §1
T2 sequence (whole entry): T1 sequence (P48067 whole entry)

[6] = biological target: T3, Sodium- and chloride-dependent glycine transporter 2 (Homo sapiens) (UniProt Q9Y345); assay: (§2) Inhibition of [3H]glycine uptake at human GlyT2 by radiometric assay
T3 sequence (whole entry): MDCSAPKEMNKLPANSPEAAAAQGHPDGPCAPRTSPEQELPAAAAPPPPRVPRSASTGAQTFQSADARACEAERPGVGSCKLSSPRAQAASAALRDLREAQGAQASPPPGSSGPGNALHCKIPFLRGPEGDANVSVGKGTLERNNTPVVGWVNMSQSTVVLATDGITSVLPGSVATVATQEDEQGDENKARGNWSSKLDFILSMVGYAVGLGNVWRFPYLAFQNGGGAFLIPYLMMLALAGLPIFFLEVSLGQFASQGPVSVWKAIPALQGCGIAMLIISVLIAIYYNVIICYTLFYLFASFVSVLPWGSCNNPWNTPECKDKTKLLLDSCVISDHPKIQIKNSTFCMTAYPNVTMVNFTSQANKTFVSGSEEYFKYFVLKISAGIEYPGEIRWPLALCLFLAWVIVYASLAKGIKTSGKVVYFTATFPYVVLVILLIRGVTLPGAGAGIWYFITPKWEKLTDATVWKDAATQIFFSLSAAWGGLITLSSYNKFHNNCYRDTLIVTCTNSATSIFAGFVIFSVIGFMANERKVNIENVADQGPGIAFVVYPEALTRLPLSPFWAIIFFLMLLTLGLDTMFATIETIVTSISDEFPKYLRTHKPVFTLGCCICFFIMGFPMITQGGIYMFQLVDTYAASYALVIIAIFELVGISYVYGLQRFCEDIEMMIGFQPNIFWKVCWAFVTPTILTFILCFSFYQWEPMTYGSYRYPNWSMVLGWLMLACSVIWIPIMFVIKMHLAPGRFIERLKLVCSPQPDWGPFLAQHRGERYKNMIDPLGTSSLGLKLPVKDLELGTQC

[7] = Clearance in mouse; format: ADME, organism-based; conditions: in vivo
[8] = Oral bioavailability in mouse; format: ADME, organism-based; conditions: in vivo
[9] = Volume of distribution in rat; format: ADME, organism-based; conditions: in vivo, read-out: Vss
[10] = Volume of distribution in mouse; format: ADME, organism-based; conditions: in vivo, read-out: Vss
[11] = Intrinsic clearance in mouse microsome; format: ADME; conditions: microsomes
[12] = biological target: Voltage-gated inwardly rectifying potassium channel KCNH2 (Homo sapiens, UniProt Q12809); assay: Inhibition of hERG potassium channel expressed in CHO cells by whole cell patch clamp method; format: toxicity, cell-based
Voltage-gated inwardly rectifying potassium channel KCNH2, sequence (Q12809 whole entry): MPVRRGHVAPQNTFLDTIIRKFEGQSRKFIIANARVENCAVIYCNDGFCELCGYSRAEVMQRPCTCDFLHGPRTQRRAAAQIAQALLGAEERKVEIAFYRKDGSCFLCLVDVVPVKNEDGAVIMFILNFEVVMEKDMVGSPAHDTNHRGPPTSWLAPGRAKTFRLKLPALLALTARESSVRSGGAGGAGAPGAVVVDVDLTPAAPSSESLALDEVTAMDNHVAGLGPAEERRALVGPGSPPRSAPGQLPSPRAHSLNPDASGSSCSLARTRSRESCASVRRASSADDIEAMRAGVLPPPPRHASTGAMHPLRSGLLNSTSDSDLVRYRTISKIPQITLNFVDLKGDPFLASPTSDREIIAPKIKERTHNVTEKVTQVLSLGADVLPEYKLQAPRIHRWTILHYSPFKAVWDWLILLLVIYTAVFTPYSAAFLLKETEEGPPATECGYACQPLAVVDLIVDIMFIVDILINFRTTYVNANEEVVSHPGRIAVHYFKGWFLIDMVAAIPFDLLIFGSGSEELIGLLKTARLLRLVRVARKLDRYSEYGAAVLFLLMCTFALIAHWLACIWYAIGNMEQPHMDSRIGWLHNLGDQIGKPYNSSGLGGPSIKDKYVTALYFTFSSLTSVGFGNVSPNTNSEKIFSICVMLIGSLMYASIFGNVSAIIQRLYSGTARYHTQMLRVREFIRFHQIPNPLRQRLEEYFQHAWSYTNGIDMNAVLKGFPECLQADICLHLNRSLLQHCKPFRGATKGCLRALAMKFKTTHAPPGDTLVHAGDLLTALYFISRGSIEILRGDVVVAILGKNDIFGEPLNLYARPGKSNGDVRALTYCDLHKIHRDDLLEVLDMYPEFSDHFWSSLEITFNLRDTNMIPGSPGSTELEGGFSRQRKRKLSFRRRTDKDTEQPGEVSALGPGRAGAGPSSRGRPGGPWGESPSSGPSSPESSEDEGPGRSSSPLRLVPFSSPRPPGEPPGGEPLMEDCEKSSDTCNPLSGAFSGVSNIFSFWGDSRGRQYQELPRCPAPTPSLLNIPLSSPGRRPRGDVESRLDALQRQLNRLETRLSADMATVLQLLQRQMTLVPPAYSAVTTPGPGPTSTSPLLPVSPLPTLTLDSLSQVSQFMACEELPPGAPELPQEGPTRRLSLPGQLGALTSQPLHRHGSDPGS

[13] = Ratio of drug level in brain against plasma in rat; format: ADME, organism-based; conditions: read-out: BPR
[14] = Clearance in rat; format: ADME, organism-based; conditions: in vivo
[15] = biological target: T4, Sodium- and chloride-dependent glycine transporter 2 (Homo sapiens, UniProt Q9Y345); assay: as §2
T4 sequence (Q9Y345 whole entry): T3 sequence (whole entry)

Nociceptin receptor = Nociceptin receptor (Homo sapiens, UniProt P41146); assay: Displacement of [3H]NOP from human NOP receptors expressed in HEK293 cells; format: cell-based; conditions: hek293
Nociceptin receptor, sequence (P41146 whole entry): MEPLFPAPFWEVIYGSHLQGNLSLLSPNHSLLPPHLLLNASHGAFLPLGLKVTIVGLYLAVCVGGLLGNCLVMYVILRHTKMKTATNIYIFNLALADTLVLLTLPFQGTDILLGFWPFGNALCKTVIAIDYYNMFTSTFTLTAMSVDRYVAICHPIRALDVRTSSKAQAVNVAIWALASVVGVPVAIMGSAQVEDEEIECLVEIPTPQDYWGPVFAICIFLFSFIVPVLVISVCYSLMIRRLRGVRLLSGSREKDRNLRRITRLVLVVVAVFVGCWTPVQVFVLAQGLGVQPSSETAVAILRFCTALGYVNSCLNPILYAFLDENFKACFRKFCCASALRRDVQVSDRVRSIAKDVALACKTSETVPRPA

[16] = Oral bioavailability in rat; format: ADME, organism-based; conditions: in vivo

Row | SMILES | EC50 [1] | microsomal CLint [2] | microsomal CLint [3] | pKa [4] | Activity [5] | Activity [6] | clearance [7] | bioavailability [8] | Vd [9] | Vd [10] | microsomal CLint [11] | IC50 [12] | Kp [13] | clearance [14] | EC50 [15] | IC50 (Nociceptin receptor) | bioavailability [16]
1 | O=C1NCN(c2ccccc2)C12CCN(C1CCCCC1(O)c1ccc(F)cc1)CC2 (stereo not given) | 24 nM | 499 µL/min/mg | 78 µL/min/mg |  |  |  |  |  |  |  |  |  |  |  |  |  | 
2 | O=C1NCC(c2ccc(F)cc2)C12CCN(C1CCCCC1(O)c1ccccc1)CC2 (stereo not given) |  |  |  | 6.89 | 91 nM | inactive |  |  |  |  |  |  |  |  |  |  | 
3 | O=C1NC[C@@H](c2ccccc2)C12CCN(C1CCCCC1c1ccccc1)CC2 (stereo in doubt; 27) | 61 nM |  | 23 µL/min/mg | 8.85 |  |  | 99 mL/min/kg | 27% | 4.3 L/kg | 8.9 L/kg | 36 µL/min/mg | 1400 nM | 5.2 | 63 mL/min/kg |  |  | 
4 | O=C1NCC(c2ccccc2)C12CCN(C1CCCCC1(O)c1ccc(F)cc1)CC2 (single isomer, unassigned; diastereomer 1) | 70 nM |  | 44 µL/min/mg | 8.54 |  |  |  |  |  |  | 13 µL/min/mg | 1800 nM |  |  | > 30000 nM | > 10000 nM | 
5 | O=C1NCN(c2ccccc2)C12CCN(C1CCCCC1c1ccccc1)CC2 (stereo not given) |  | 240 µL/min/mg | 68 µL/min/mg |  |  |  |  |  | 7.3 L/kg |  |  |  | 1.6 | 120 mL/min/kg |  |  | 8%
